Data taken from ChEMBL document CHEMBL5212743, “Selectivity Literature for EUbOPEN Chemogenomics Library wave 3” (2023).
Each block holds one compound with its values, some of them ahead of it.

How the values were obtained:
[1] = target: Activin receptor type-2A (Homo sapiens) (UniProt P27037); conditions: at 1 µM
[2] = target: Sodium channel regulatory subunit beta-2 (Homo sapiens, UniProt O60939); experiment: Selectivity interaction (Enzyme and Receptor panel (MSD Pharma/Taiwan)) EUB0000753a SCN2B
[3] = target: Mitogen-activated protein kinase kinase kinase kinase 5 (Homo sapiens) (UniProt Q9Y4K4); conditions: at 1 µM
[4] = target: Epidermal growth factor receptor (Homo sapiens, UniProt P00533); conditions: at 1 µM
[5] = target: Mitogen-activated protein kinase kinase kinase kinase 4 (Homo sapiens) (UniProt O95819); conditions: at 1 µM
[6] = target: Ribosomal protein S6 kinase alpha-2 (Homo sapiens) (UniProt Q15349); experiment: Selectivity interaction (Kinase panel (Millipore)) EUB0000153b RPS6KA2; conditions: at 10 µM
[7] = target: Serine/threonine-protein kinase Sgk2 (Homo sapiens) (UniProt Q9HBY8); experiment: Selectivity interaction (Kinase panel (Millipore)) EUB0000153b SGK2; conditions: at 10 µM
TGF-beta receptor type-1 = TGF-beta receptor type-1 (Homo sapiens, UniProt P36897); experiment: Selectivity interaction (Kinase panel (enzymatic assay)) EUB0000153b TGFBR1
[8] = target: cAMP-dependent protein kinase catalytic subunit PRKX (Homo sapiens) (UniProt P51817); experiment: Selectivity interaction (Kinase panel (Millipore)) EUB0000153b PRKX; conditions: at 10 µM
[9] = target: RAC-alpha serine/threonine-protein kinase (Homo sapiens, UniProt P31749); experiment: Selectivity interaction (Kinase panel (enzymatic assay)) EUB0000153b AKT1
[10] = target: Tyrosine-protein kinase SYK (Homo sapiens, UniProt P43405); experiment: Selectivity interaction (Kinase panel (enzymatic assay)) EUB0000153b SYK
[11] = target: Phosphatidylinositol 4,5-bisphosphate 3-kinase catalytic subunit gamma isoform (Homo sapiens, UniProt P48736); experiment: Selectivity interaction (Kinase panel (enzymatic assay)) EUB0000153b PIK3CG
[12] = target: Ribosomal protein S6 kinase alpha-6 (Homo sapiens) (UniProt Q9UK32); experiment: Selectivity interaction (Kinase panel (Millipore)) EUB0000153b RPS6KA6; conditions: at 10 µM
[13] = target: Rho-associated protein kinase 2 (Homo sapiens) (UniProt O75116); experiment: Selectivity interaction (Kinase panel (Millipore)) EUB0000153b ROCK2; conditions: at 10 µM
[14] = target: Glycogen synthase kinase-3 beta (Homo sapiens, UniProt P49841); experiment: Selectivity interaction (Kinase panel (enzymatic assay)) EUB0000153b GSK3B
[15] = target: Vascular endothelial growth factor receptor 2 (Homo sapiens, UniProt P35968); experiment: Selectivity interaction (Kinase panel (enzymatic assay)) EUB0000153b KDR
[16] = target: Inhibitor of nuclear factor kappa-B kinase subunit alpha (Homo sapiens, UniProt O15111); experiment: Selectivity interaction (Kinase panel (enzymatic assay)) EUB0000153b CHUK
[17] = target: T1, Serine/threonine-protein kinase Sgk1 (Homo sapiens) (UniProt O00141); experiment: Selectivity interaction (Kinase panel (Millipore)) EUB0000153b SGK1; conditions: at 10 µM
T1 sequence (whole entry): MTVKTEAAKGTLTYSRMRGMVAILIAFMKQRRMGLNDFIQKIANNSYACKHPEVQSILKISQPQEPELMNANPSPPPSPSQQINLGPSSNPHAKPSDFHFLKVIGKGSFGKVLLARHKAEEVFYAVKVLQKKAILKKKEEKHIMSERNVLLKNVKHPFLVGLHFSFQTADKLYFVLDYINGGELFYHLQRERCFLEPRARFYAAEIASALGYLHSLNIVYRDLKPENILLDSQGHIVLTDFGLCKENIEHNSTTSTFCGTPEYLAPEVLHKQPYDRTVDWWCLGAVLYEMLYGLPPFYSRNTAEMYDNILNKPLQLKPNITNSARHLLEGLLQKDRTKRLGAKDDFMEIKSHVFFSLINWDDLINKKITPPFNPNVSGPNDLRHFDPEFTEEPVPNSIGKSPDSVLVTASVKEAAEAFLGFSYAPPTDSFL

[18] = target: NUAK family SNF1-like kinase 1 (Homo sapiens) (UniProt O60285); experiment: Selectivity interaction (Kinase panel (Millipore)) EUB0000153b NUAK1; conditions: at 10 µM
[19] = target: Mitogen-activated protein kinase kinase kinase 5 (Homo sapiens, UniProt Q99683); experiment: Selectivity interaction (Kinase panel (enzymatic assay)) EUB0000153b MAP3K5
[20] = target: T2, Alpha-1B adrenergic receptor (Homo sapiens, UniProt P35368); experiment: Selectivity interaction (Receptors and enzyme panel (internal screening at GSK)) EUB0000215b ADRA1B
T2 sequence (P35368 whole entry): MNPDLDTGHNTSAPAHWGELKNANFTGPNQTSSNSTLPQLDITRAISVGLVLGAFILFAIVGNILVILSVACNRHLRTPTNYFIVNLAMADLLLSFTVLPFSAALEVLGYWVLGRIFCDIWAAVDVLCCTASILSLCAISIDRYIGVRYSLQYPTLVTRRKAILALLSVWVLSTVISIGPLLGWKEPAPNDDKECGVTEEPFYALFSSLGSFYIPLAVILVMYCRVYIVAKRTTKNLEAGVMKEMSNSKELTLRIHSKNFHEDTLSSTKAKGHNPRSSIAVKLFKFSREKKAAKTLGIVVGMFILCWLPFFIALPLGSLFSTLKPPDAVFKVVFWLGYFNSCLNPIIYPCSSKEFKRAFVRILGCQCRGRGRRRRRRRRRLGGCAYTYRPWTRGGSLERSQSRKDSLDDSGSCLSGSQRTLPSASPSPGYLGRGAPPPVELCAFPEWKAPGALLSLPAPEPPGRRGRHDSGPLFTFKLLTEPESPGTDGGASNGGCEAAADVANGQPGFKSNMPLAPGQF

[21] = target: T3, Histone-lysine N-methyltransferase EZH1 (Homo sapiens, UniProt Q92800); experiment: Selectivity interaction (Methyltransferase panel (HotSpot screen, Reaction Biology, radioisotope-based filter binding assays)) EUB0000215b EZH1
T3 sequence (Q92800 whole entry): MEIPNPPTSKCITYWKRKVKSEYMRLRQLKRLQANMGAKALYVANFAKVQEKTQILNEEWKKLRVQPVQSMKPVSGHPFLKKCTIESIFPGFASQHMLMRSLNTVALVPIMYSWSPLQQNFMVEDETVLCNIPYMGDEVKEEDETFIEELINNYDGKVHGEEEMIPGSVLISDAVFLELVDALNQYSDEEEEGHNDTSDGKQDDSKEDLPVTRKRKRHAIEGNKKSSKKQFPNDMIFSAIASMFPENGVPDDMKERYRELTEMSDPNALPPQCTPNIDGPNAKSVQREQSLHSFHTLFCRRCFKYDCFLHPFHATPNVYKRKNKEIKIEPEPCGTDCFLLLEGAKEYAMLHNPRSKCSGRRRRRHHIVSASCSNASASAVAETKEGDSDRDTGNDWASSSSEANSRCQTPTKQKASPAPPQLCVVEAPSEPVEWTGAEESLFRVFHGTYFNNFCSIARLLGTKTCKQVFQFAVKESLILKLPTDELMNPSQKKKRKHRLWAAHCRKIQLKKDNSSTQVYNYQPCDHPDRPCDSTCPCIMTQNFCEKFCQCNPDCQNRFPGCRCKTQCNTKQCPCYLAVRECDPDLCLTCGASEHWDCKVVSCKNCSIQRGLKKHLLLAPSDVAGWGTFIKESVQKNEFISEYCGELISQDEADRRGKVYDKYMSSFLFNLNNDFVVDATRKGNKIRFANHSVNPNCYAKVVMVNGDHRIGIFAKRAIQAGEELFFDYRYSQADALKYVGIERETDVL

[22] = target: Tyrosine-protein kinase JAK2 (Homo sapiens, UniProt O60674); conditions: at 1 µM
[23] = target: T4, Gamma-aminobutyric acid receptor subunit alpha-1 (Homo sapiens, UniProt P14867); experiment: Selectivity interaction (GPCR panel (PDSP screen)) EUB0000739a GABRA1
T4 sequence (P14867 whole entry): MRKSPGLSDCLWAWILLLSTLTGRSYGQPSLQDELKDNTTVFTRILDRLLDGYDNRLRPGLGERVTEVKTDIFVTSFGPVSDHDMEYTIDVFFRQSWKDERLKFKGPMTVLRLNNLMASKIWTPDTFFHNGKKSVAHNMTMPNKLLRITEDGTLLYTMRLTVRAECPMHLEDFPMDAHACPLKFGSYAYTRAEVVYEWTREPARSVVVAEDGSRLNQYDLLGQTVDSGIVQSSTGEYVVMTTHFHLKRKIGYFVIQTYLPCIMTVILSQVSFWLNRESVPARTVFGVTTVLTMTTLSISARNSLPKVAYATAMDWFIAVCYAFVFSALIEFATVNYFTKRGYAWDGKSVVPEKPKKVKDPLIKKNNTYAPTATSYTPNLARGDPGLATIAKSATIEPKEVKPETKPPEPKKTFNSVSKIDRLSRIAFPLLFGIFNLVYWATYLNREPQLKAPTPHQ

[24] = target: Tyrosine-protein kinase ABL1 (Homo sapiens, UniProt P00519); conditions: at 1 µM
[25] = target: T2, Alpha-1B adrenergic receptor; experiment: Selectivity interaction (GPCR panel (PDSP screen)) EUB0000739a ADRA1B
[26] = target: High affinity nerve growth factor receptor (Homo sapiens, UniProt P04629); experiment: Selectivity interaction (KinomeScan (DiscoverX, competition-binding assay))
Chain of High affinity nerve growth factor receptor (P04629 whole entry): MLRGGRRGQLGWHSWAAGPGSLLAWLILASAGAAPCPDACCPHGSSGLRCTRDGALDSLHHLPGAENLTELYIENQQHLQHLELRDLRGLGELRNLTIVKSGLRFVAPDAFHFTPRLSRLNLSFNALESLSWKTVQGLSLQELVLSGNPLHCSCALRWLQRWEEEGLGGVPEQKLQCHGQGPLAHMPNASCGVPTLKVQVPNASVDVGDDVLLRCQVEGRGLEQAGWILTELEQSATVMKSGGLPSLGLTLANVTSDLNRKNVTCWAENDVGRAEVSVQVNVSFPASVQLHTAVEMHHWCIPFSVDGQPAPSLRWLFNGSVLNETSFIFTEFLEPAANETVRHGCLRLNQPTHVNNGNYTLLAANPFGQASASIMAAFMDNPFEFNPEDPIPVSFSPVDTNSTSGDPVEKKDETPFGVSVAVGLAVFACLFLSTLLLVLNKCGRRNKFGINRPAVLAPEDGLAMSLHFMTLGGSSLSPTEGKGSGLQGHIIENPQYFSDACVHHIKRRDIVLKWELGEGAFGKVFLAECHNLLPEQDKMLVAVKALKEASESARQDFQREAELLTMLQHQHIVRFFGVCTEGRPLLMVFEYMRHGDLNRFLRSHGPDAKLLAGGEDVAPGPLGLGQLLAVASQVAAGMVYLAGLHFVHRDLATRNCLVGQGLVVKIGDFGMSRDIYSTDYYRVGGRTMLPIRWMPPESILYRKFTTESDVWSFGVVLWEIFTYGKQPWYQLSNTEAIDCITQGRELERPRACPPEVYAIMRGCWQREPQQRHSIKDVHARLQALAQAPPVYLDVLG

Chain of Sodium channel regulatory subunit beta-2 (O60939 whole entry): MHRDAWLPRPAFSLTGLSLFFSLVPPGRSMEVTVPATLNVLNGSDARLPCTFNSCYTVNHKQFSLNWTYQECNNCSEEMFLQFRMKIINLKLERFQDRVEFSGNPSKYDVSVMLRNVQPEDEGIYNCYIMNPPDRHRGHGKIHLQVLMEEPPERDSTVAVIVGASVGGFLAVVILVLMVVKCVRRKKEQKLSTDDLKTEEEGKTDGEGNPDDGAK
Chain of Activin receptor type-2A (Homo sapiens) (P27037 whole entry): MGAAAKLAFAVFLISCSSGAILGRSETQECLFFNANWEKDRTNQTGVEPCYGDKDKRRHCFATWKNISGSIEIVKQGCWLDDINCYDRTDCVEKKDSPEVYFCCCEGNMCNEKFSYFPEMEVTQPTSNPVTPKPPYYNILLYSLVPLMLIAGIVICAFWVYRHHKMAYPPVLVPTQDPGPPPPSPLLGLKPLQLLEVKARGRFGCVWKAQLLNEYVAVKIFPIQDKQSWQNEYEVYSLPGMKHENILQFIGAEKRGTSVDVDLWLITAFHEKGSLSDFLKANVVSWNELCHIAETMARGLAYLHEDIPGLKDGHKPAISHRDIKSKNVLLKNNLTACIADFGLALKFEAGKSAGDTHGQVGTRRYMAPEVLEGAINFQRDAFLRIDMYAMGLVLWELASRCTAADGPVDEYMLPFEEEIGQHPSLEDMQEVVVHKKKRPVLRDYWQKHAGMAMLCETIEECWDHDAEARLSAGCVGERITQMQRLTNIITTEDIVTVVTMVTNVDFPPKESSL
Chain of TGF-beta receptor type-1 (P36897 whole entry): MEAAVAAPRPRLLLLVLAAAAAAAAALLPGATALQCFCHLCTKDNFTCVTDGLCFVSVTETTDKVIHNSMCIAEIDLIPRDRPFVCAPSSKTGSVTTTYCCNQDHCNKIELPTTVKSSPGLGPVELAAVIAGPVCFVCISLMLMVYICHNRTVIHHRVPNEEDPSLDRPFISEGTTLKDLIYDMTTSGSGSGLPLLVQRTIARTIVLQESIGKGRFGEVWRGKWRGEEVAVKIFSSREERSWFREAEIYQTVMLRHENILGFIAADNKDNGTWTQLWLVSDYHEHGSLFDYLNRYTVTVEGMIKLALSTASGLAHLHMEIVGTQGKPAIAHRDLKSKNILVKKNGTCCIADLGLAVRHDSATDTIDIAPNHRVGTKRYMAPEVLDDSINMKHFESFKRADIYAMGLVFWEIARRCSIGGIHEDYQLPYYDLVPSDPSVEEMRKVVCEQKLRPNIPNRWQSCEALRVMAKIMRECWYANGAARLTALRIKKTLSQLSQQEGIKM
Chain of Tyrosine-protein kinase ABL1 (P00519 whole entry): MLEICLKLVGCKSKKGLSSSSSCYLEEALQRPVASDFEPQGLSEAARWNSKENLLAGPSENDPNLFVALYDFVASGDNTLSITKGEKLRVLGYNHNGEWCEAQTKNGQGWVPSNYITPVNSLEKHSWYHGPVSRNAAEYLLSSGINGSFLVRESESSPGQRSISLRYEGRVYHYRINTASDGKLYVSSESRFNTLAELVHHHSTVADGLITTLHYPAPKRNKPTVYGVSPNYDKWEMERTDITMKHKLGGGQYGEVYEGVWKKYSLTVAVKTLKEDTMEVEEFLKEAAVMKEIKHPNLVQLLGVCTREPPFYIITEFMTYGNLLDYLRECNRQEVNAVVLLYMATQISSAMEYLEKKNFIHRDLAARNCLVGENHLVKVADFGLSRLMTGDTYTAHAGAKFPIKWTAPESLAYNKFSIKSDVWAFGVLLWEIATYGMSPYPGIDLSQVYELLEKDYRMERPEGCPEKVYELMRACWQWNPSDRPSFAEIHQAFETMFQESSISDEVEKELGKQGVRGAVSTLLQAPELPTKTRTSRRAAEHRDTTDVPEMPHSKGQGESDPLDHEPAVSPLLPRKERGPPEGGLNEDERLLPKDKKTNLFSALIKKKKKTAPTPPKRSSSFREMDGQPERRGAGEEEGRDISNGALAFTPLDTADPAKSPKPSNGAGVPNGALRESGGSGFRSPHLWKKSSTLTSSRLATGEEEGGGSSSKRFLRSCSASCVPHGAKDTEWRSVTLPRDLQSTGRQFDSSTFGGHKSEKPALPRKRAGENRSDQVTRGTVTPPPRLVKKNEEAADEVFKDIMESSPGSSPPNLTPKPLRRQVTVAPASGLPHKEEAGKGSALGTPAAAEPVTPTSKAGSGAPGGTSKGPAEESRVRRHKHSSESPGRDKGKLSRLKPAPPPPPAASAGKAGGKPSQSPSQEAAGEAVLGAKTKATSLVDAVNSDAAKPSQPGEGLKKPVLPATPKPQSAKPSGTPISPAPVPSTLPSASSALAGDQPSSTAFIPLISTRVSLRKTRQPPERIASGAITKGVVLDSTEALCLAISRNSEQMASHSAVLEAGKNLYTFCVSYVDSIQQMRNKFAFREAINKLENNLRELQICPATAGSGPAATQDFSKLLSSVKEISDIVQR
Chain of Mitogen-activated protein kinase kinase kinase kinase 5 (Homo sapiens) (Q9Y4K4 whole entry, looked up): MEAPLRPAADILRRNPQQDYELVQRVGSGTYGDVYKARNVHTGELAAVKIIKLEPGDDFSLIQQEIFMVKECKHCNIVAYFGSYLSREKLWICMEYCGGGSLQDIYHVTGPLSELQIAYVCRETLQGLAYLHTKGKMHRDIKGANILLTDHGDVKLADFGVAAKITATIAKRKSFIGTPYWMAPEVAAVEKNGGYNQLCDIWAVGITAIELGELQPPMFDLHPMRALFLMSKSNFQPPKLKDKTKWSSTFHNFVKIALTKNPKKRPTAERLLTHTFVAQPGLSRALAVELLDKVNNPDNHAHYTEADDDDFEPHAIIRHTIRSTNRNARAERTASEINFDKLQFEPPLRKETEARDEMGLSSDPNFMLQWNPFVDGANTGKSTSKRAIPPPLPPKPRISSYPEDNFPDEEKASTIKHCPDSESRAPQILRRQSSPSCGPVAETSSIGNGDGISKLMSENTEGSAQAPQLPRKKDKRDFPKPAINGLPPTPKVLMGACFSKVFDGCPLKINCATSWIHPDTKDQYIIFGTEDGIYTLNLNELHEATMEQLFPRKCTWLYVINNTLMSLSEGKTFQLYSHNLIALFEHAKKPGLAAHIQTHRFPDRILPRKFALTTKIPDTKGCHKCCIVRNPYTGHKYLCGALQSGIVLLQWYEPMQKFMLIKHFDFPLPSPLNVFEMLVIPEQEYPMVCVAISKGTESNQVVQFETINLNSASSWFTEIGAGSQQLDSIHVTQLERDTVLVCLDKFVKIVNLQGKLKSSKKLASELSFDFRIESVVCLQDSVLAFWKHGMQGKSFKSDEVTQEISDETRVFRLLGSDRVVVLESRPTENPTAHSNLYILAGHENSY
Chain of cAMP-dependent protein kinase catalytic subunit PRKX (Homo sapiens) (P51817 whole entry): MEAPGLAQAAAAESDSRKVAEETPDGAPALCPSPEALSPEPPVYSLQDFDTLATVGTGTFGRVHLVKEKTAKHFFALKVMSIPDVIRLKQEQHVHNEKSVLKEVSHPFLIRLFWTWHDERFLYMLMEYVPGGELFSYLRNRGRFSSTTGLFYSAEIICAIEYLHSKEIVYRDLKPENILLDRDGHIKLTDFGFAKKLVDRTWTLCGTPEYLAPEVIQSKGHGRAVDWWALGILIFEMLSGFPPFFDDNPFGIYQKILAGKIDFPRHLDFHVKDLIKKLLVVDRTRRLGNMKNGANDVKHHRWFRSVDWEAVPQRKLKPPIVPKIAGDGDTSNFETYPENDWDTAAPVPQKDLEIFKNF
Chain of Glycogen synthase kinase-3 beta (P49841 whole entry): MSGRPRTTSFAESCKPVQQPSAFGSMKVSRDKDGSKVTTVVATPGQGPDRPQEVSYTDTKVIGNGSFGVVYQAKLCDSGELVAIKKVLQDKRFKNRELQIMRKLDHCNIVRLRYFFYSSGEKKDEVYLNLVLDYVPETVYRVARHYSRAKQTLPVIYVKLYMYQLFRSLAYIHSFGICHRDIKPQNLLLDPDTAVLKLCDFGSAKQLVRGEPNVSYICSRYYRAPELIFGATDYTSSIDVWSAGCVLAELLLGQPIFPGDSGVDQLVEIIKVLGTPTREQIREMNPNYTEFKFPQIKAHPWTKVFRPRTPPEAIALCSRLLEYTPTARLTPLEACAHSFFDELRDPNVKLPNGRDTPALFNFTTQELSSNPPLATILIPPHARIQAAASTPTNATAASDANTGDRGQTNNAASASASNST

SMILES: CCCc1cc(C)[nH]c(=O)c1CNC(=O)c1cc(-c2ccnc(N3CCN(C)CC3)c2)cc2c1cnn2C(C)C
IC50 [20]: 10 µM
IC50 [21]: 0.24 µM

SMILES: COc1ccc(COc2ccc(Cc3cnc(N)nc3N)cc2OC)cc1 [GW632580X]
Kd [26]: < 0.1 µM

Second part, the compound after the results:

% of control [1]: 0%
IC50 [2]: 1 µM
% of control [3]: 5.8%
% of control [4]: 0%
% of control [5]: 0%
SMILES: COc1cc(-c2cn([C@H]3CCc4c(F)cccc4N(CC(F)(F)F)C3=O)nn2)ccc1-n1cnc(C)c1

% of control [6]: 14%
% of control [7]: 0%
IC50 (TGF-beta receptor type-1): > 10 µM
% of control [8]: 4%
IC50 [9]: > 10 µM
IC50 [10]: > 10 µM
IC50 [11]: > 10 µM
% of control [12]: 12%
% of control [13]: 17%
IC50 [14]: > 10 µM
IC50 [15]: > 10 µM
IC50 [16]: > 10 µM
% of control [17]: 13%
% of control [18]: 16%
IC50 [19]: > 10 µM
SMILES: CNc1nc(-c2ccc3c(N)n[nH]c3c2)cc(N2C[C@@H](C(=O)NC3CCCCC3)CC[C@H]2C)n1

% of control [22]: 34%
Ki [23]: 5.07 µM
% of control [24]: 47%
Ki [25]: > 10 µM
SMILES: COc1cc(-c2cn([C@H]3CCc4ccccc4N(CC(F)(F)F)C3=O)nn2)ccc1-n1ccc(C)n1
